Assay [1] deals with TARP γ8 dependent AMPA receptor (GluA1o-g8 fusion channel) (Homo sapiens (Human), UniProt P42261+Q8WXS5). The assay can be described thus: Calcium flux assay (FLIPR), HEK293 cells expressing GRIA1o-CACNG8 fusion. The class given is cell-based. The note with it: inhibition of calcium flux after 15 μM glutamate; for IC50: read-out: GluR1-γ8 pIC50 (converted). A digest of the protocol: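 Stable HEK293 clone expressing GluA1o-γ8 fusion (1:1 stoichiometry), loaded with Calcium-5/6 dye plus test compound; glutamate-evoked fluorescence normalized to control wells. Concentration-response fitted to four-parameter logistic, midpoint taken as inhibitory potency.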
Background: A change in cytosolic calcium serves as a functional read-out for many receptors and channels.

Assay [2] relates to endogenous γ 8-containing AMPA receptor currents. The assay can be described thus: Whole-cell electrophysiology on acutely-dissociated mouse hippocampal neurons. The class given is cell-based. Particulars: 10 mM glutamate, 500 ms, held at −60 mV. The method, then: The effects of selected compounds upon endogenous γ 8-containing AMPA receptor currents was evaluated using whole-cell electrophysiology on acutely-dissociated mouse hippocampal neurons. Hippocampus was chosen for this assay, since CACNG8 (the protein encoded by this gene is a type I transmembrane AMPA receptor regulatory protein i.e., TARP) is preferentially enriched in this brain region (Tomita et al. (2003). “Functional studies and distribution define a family of transmembrane AMPA receptor regulatory proteins.” J Cell Biol 161(4): 805-816.2003).
Hippocampi were dissected from C57black6 mice at 4-12 weeks postnatal, following the protocol described by Brewer (Brewer, G. J. (1997). “Isolation and culture of adult rat hippocampal neurons.” Journal of Neuroscience Methods 71(2): 143-155). The following is a brief summary of the procedure. Mice were asphyxiated with CO2 then decapitated. The brain was rapidly removed, then placed into ice-cold HABG medium. The recipe for HABG medium was: HibernateA supplemented with 2% B27 and 0.5 mM Glutamax (all reagents from Life Technologies). Hippocampi were micro-dissected from the brains, then washed with HABG without calcium (Hibernate A minus Calcium, BrainBits; 2% B27, Life Technologies; 0.5 mM glutamax, Life Technologies).
The hippocampi were then transferred to HABG without calcium, supplemented with 2 mg/mL papain (Worthington Biochemical). They were incubated at 30° C. on a roller for 40 min, then gently triturated with a fire-polished glass pipette. The supernatant containing dissociated neurons was collected, then centrifuged for 2 min at 200 g. The cell pellet was collected, and then resuspended in 8 mL of HABG. Live cells were counted, then plated onto 12 mm glass coverslips in HABG (2 mL) in 24-well plates at a density of 50-100 cells per coverslip. These cells were maintained at room temperature until use.
Whole-cell electrophysiology was performed using 1.5 mm diameter glass capillary tubes (World Precision Instruments TW150-4), pulled to a fine tip with a Sutter P-97 micropipette puller. The intracellular buffer was 90 mM KF, 30 mM KCl, 10 mM HEPES, and 5 mM EGTA, pH 7.4, 290 mOs. The extracellular buffer was 135 mM NaCl, 4 mM KCl, 2 mM CaCl2), 1 mM MgCl2, 5 mM glucose, 10 mM HEPES, pH 7.4, 300 mOs. The open-tip resistances of the micropipettes using these solutions were 2-4MΩ. Whole-cell recordings of neuron cell bodies were performed in voltage-clamp mode using an Axon Axopatch 200B amplifier. Whole-cell current was measured holding the interior of the cell at −60 mV, using a 5 kHz lowpass filter. The cells were continuously perfused through 7 mm square glass barrels using a solenoid-controlled solution switching device (Warner Instruments, PF-77B). The peak current in response to a 500 ms exposure to 10 mM glutamate every 5 seconds was measured, before and after exposure to test compound.
For analysis, the mean peak current of 5 traces in the presence of test compound was divided by the mean peak current of 5 traces prior to the addition of test compound. Compounds were tested at concentrations at least ten times higher than their estimated potency in the calcium flux assay, in order to ensure near-saturating occupancy of the receptor.
The table below summarizes the results of this electrophysiological assay. Peak current (% control) is mean of the peak response to glutamate in the presence of the indicated compound, normalized to the peak response to glutamate in the absence of test compound. N is the number of neurons tested. The compounds were tested at concentrations noted below in Table 5. At the said tested concentrations, the peak response to glutamate was reduced compared to controls for all tested compounds.

Sequence of TARP γ8 dependent AMPA receptor (GluA1o-g8 fusion channel) (P42261 other isoform, or with tags, fused parts or gaps): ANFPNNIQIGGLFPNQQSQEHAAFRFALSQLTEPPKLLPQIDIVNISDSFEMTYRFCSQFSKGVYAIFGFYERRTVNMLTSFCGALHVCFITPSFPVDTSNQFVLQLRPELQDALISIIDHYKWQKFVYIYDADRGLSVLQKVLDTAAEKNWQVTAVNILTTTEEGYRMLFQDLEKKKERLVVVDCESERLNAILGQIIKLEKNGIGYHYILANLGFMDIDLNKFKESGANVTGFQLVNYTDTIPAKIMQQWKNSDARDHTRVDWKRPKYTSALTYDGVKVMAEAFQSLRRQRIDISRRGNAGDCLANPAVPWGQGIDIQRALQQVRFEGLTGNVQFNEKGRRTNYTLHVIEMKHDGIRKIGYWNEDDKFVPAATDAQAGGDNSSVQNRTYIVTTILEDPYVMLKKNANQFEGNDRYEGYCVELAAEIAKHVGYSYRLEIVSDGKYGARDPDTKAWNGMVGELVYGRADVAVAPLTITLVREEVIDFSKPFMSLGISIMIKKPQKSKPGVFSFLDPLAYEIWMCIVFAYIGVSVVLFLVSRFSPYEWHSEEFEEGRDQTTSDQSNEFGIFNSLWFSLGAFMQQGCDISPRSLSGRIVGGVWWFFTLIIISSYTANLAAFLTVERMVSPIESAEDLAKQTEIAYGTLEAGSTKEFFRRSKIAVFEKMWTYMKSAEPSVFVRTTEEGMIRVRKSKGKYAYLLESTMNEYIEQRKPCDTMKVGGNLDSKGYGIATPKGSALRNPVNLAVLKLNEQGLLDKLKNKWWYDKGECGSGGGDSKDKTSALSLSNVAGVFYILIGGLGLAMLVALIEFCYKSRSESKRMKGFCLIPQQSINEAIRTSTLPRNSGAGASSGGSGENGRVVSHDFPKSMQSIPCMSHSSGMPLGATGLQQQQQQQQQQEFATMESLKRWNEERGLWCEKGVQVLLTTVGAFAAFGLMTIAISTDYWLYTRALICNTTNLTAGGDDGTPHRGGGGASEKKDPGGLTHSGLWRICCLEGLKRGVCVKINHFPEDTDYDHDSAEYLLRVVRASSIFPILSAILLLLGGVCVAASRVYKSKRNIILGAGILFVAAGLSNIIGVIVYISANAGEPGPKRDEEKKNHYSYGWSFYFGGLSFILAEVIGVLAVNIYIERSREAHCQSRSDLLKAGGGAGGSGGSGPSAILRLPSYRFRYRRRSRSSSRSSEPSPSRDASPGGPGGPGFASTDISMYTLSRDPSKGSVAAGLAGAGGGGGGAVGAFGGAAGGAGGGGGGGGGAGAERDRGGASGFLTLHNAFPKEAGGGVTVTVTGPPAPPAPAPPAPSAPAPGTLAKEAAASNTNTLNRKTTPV

For the compound `O=c1[nH]c2ccc(-c3c(Cl)cccc3C3CC3)cc2[nH]1` [Example 160, 5-(2-Chloro-6-cyclopropyl-phenyl)-1,3-dihydrobenzimidazol-2-one], the “GluR1-γ8 pIC50” value in assay [1] turned out to be 8.2. In addition, the “peak current (% control)” value in assay [2] (1 μM compound) is on record as 70%.

As for `COc1cccc(OCC(C)C)c1-c1ccc2[nH]c(=O)[nH]c2c1` [Example 14, 5-(2-Isobutoxy-6-methoxy-phenyl)-1,3-dihydrobenzimidazol-2-one], the IC50 in assay [1] was 31.6 nM. Further, in assay [2] (1 μM compound), the “peak current (% control)” value turned out to be 69%.

On to `Cc1cccc(Cl)c1-c1ccc2[nH]c(=O)[nH]c2c1` [Example 36, 5-(2-Chloro-6-methyl-phenyl)-1,3-dihydrobenzimidazol-2-one], for which the IC50 in assay [1] was 63.1 nM. Further, the “peak current (% control)” value in assay [2] (1 μM compound) is listed as 72%.

`N#CCc1cccc(Cl)c1-c1ccc2[nH]c(=O)[nH]c2c1` [Example 124, 2-[3-Chloro-2-(2-oxo-1,3-dihydrobenzimidazol-5-yl)phenyl]acetonitrile]: in assay [1], the IC50 is 12.6 nM. In addition, in assay [2] (1 μM compound), the “peak current (% control)” value is listed as 63%.

In the case of `N#CCc1cccc(OC(F)(F)F)c1-c1ccc2[nH]c(=O)[nH]c2c1` [Example 123], in assay [1], the IC50 is 15.8 nM. Also, the “peak current (% control)” value in assay [2] (1 μM compound) is recorded as 59%.

As to `O=c1[nH]c2ccc(-c3c(Cl)cccc3OC(F)(F)F)cc2[nH]1` [Example 31, 5-[2-Chloro-6-(trifluoromethoxy)phenyl]-1,3-dihydrobenzimidazol-2-one], the “peak current (% control)” value in assay [2] (1 μM compound) is on record as 61%.

For `Cc1cccc(C)c1-c1ccc2[nH]c(=O)[nH]c2c1` [Example 2, 5-(2,6-Dimethylphenyl)-1,3-dihydrobenzimidazol-2-one], in assay [1], the “GluR1-γ8 pIC50” value was determined as 6.8. The “peak current (% control)” value in assay [2] (10 μM compound) amounted to 70%.

As to `O=c1[nH]c2ccc(-c3c(Cl)ccc(Cl)c3Cl)cc2[nH]1` [Example 66, 5-(2,3,6-Trichlorophenyl)-1,3-dihydrobenzimidazol-2-one], the IC50 in assay [1] is 10 nM. Moreover, the “peak current (% control)” value in assay [2] (1 μM compound) came to 86%.

For the compound `CC(C)(C)OC(=O)N1CC(Oc2cccc(-c3ccc4[nH]c(=O)[nH]c4c3)c2Cl)C1` [Example 114, tert-Butyl 3-[2-chloro-3-(2-oxo-1,3-dihydrobenzimidazol-5-yl)phenoxy]azetidine-1-carboxylate], in assay [1], the IC50 was 200 nM.

As to `Cc1ccc(Cl)c(-c2ccc3[nH]c(=O)[nH]c3c2)c1Cl` [Example 23, 5-(2,6-Dichloro-3-methyl-phenyl)-1,3-dihydrobenzimidazol-2-one], the IC50 in assay [1] was 15.8 nM.

With `CC(C)(C)OC(=O)N1CCC=C(c2cccc(-c3ccc4[nH]c(=O)[nH]c4c3)c2Cl)C1` [Example 186, tert-Butyl 5-[2-chloro-3-(2-oxo-1,3-dihydrobenzimidazol-5-yl)phenyl]-3,6-dihydro-2H-pyridine-1-carboxylate], the IC50 in assay [1] is 6.31 nM.

With `COc1cccc(C)c1-c1ccc2[nH]c(=O)[nH]c2c1` [Example 55], in assay [1], the IC50 was 794 nM.

As to `CN(C)c1cccc(-c2ccc3[nH]c(=O)[nH]c3c2)c1Cl` [Example 189, 5-[2-Chloro-3-(dimethylamino)phenyl]-1,3-dihydrobenzimidazol-2-one], the IC50 in assay [1] was 3980 nM.

Take `O=c1[nH]c2ccc(-c3c(Cl)cccc3-c3ccncc3)cc2[nH]1` [Example 170, 5-[2-Chloro-6-(4-pyridyl)phenyl]-1,3-dihydrobenzimidazol-2-one]: the IC50 in assay [1] is 316 nM.

Regarding `O=c1[nH]c2ccc(-c3c(Cl)cccc3OC(F)(F)F)cc2s1` [Example 76, 6-[2-Chloro-6-(trifluoromethoxy)phenyl]-3H-1,3-benzothiazol-2-one], in assay [1], the “GluR1-γ8 pIC50” value is 8.6.

On to `O=c1[nH]c2cc(F)c(-c3c(Cl)cccc3OC(F)(F)F)cc2s1` [Example 210, 6-[2-Chloro-6-(trifluoromethoxy)phenyl]-5-fluoro-3H-1,3-benzothiazol-2-one], for which the IC50 in assay [1] is 63.1 nM.

On to `O=c1[nH]c2ccc(-c3cccc(Cl)c3C(F)(F)F)cc2[nH]1` [Example 34, 5-[3-Chloro-2-(trifluoromethyl)phenyl]-1,3-dihydrobenzimidazol-2-one], for which the IC50 in assay [1] is 251 nM.

On to `COc1cccc(-c2cccc3cccnc23)c1-c1ccc2[nH]c(=O)[nH]c2c1` [Example 182, 5-[2-Methoxy-6-(8-quinolyl)phenyl]-1,3-dihydrobenzimidazol-2-one], for which the IC50 in assay [1] was 1580 nM.

`N#CCc1ccccc1-c1ccc2[nH]c(=O)[nH]c2c1` [Example 41, 2-[2-(2-Oxo-1,3-dihydrobenzimidazol-5-yl)phenyl]acetonitrile]: the IC50 in assay [1] is 501 nM.

The values above are taken from US10611730B2, “Benzimidazolone and benzothiazolone compounds and their use as AMPA receptor modulators” (Janssen Pharmaceutica NV, priority 2015, dated 2020).
